Test system: HIV-1 303B
Test: microbe, parasite or virus in culture
Assay type: cell-based
Details: for EC50: Human immunodeficiency virus 1, MT2, 120 h; for Combination Indices at 50% HIV Inhibition (Confidence Interval) / Combination Indices at 75% HIV Inhibition (Confidence Interval) / Combination Indices at 90% HIV Inhibition (Confidence Interval): in combination with Example 19, 95% CI in parenthesis; for overall antiviral effect of the two-drug combination with Example 19 (in words): classification from combination indices and confidence intervals
Method: Virus and cell lines. The T-cell line, MT-2, was obtained through the AIDS Research and Reference Reagent Program. MT-2 cells were sub-cultured twice a week in RPMI 1640 medium supplemented with 10% fetal bovine serum, 2 mM L-glutamine, and 10 mM HEPES buffer pH 7.5. The HIV-1303B virus is a molecular clone derived from the NL4-3 strain of HIV-1 that was obtained from the NIH AIDS Research and Reference Reagent Program. For combinations with enfuvirtide, the NL36G virus was used. […] Virus stocks were made by transfecting 293T cells with a proviral DNA clone using LipofectAMINE PLUS (Invitrogen), according to the manufacturer's instructions. Three days post-transfection, virus was harvested and passaged once in MT-2 cells before titration in MT-2 cells.
Chemicals. Example 19, atazanavir, didanosine, stavudine, efavirenz, and enfuvirtide (T-20) were synthesized by Bristol-Myers Squibb using published or known reactions. […] Tenofovir was tested as tenofovir disopoxil fumarate. Zidovudine and zalcitabine were purchased from Sigma, and emtricitabine from Moravek Biochemicals.
Drug Susceptibility and Cytotoxicity Assays. For drug susceptibility assays, MT-2 cells were infected with HIV-1 303B (or NL36G), at an MOI of 0.001, and seeded into 96-well microtiter plates (2.5×10^5 cells/ml) containing serial dilutions of test compounds. […] Each drug ratio consisted of an array of 3-fold serial dilutions, and was performed with eight or more replicas on separate multi-well plates. HIV infected cells were incubated at 37° C. in 5% CO2, and on day five post-infection, the extent of virus replication was measured by determining cell viability using the CellTiter 96 Aqueous Non-Radioactive Cell Proliferation Assay (Promega). […] Cytotoxicity assays were performed in parallel with the combination experiments. Here, uninfected cells were exposed to the same drug combinations, and assayed after five days for cell viability using the MTS assay.
Analysis of Drug Combination Effects. For determination of combination index (CI) values, drugs were diluted in a fixed ratio and multiple ratios were analyzed. The drug serial dilutions spanned a range of concentrations near the EC50 value of each compound, so that equivalent antiviral activities could be compared. The normalized responses from each therapy are fit to the four-parameter logistic model with a common minimum and maximum across all therapies. Conceptually, this equation can be written as
In this equation, Fa stands for “fraction affected,” and represents the fraction of the viral load that has been inactivated. […] The EC50, represented by the Ci in the above equation, is the drug concentration that is expected to reduce the amount of virus by 50%, and the Bi are the parameters that reflects the slope of the concentration-response curve. For this assay, A is the bottom plateau common to all curves, D is the common top plateau, Bj is the “slope” parameter for the jth therapy, and Cj is the concentration that produces an effect equal to the average of A and D for the jth therapy. Therapies 1 and 2 correspond to mono therapies 1 and 2, respectively. Therapies 3, 4, and 5 correspond to the three combination therapies. EC50 values for each drug were determined from the single drug experiments, using the above equation. The equation was fit using a nonlinear regression routine (Proc Nlin) in PC SAS version 8.2 (SAS Institute Inc.).
To assess antiviral effects of different drug combination treatments, combination indices (CIs) were calculated according to Chou and Rideout. The combination index was computed as
In this equation [Dm]1 and [Dm]2 are the concentrations of drugs that would individually produce a specific level of effect, while [D]1 and [D]2 are the concentrations of drugs in combination that would produce the same level of effect.
Theoretically, additivity is implied if the CI is equal to one, synergy if the CI is less than one, and antagonism if the CI is greater than one.

[1] = EC50 ratio Example 19:comparator 1:1
[2] = EC50 ratio Example 19:comparator 1:2.5
[3] = EC50 ratio Example 19:comparator 2.5:1

SMILES: CC(C)Nc1cccnc1N1CCN(C(=O)c2cc3cc(NS(C)(=O)=O)ccc3[nH]2)CC1 [Delavirdine, delavirdine]
- EC50: 43 nM
- Combination Indices at 50% HIV Inhibition (Confidence Interval) [1]: 0.76 (0.64, 0.89)
- Combination Indices at 75% HIV Inhibition (Confidence Interval) [1]: 0.60 (0.47, 0.74)
- Combination Indices at 90% HIV Inhibition (Confidence Interval) [1]: 0.48 (0.31, 0.64)
- Combination Indices at 50% HIV Inhibition (Confidence Interval) [2]: 0.68 (0.58, 0.77)
- Combination Indices at 75% HIV Inhibition (Confidence Interval) [2]: 0.44 (0.32, 0.54)
- Combination Indices at 90% HIV Inhibition (Confidence Interval) [2]: 0.28 (0.17, 0.39)
- Combination Indices at 50% HIV Inhibition (Confidence Interval) [3]: 0.80 (0.68, 0.92)
- Combination Indices at 75% HIV Inhibition (Confidence Interval) [3]: 0.53 (0.42, 0.63)
- Combination Indices at 90% HIV Inhibition (Confidence Interval) [3]: 0.35 (0.25, 0.45)

SMILES: O=c1[nH]cnc2c1ncn2[C@H]1CC[C@@H](CO)O1 [Didanosine, didanosine]
- EC50: 10700 nM
- overall antiviral effect of the two-drug combination with Example 19 (in words): synergistic
- Combination Indices at 50% HIV Inhibition (Confidence Interval) [1]: 0.58 (0.53, 0.63)
- Combination Indices at 75% HIV Inhibition (Confidence Interval) [1]: 0.47 (0.35, 0.60)
- Combination Indices at 90% HIV Inhibition (Confidence Interval) [1]: 0.39 (0.22, 0.56)
- Combination Indices at 50% HIV Inhibition (Confidence Interval) [2]: 0.56 (0.51, 0.62)
- Combination Indices at 75% HIV Inhibition (Confidence Interval) [2]: 0.46 (0.40, 0.52)
- Combination Indices at 90% HIV Inhibition (Confidence Interval) [2]: 0.38 (0.32, 0.44)
- Combination Indices at 50% HIV Inhibition (Confidence Interval) [3]: 0.50 (0.46, 0.54)
- Combination Indices at 75% HIV Inhibition (Confidence Interval) [3]: 0.49 (0.44, 0.53)
- Combination Indices at 90% HIV Inhibition (Confidence Interval) [3]: 0.48 (0.42, 0.54)

SMILES: O=C1Nc2ccc(Cl)cc2[C@@](C#CC2CC2)(C(F)(F)F)O1 [Efavirenz, efavirenz]
- EC50: 1.6 nM
- overall antiviral effect of the two-drug combination with Example 19 (in words): synergism at most effective concentrations and molar ratios
- Combination Indices at 50% HIV Inhibition (Confidence Interval) [1]: 0.83 (0.75, 0.92)
- Combination Indices at 75% HIV Inhibition (Confidence Interval) [1]: 0.76 (0.64, 0.88)
- Combination Indices at 90% HIV Inhibition (Confidence Interval) [1]: 0.70 (0.54, 0.85)
- Combination Indices at 50% HIV Inhibition (Confidence Interval) [2]: 0.95 (0.86, 1.04)
- Combination Indices at 75% HIV Inhibition (Confidence Interval) [2]: 0.93 (0.85, 1.02)
- Combination Indices at 90% HIV Inhibition (Confidence Interval) [2]: 0.93 (0.79, 1.06)
- Combination Indices at 50% HIV Inhibition (Confidence Interval) [3]: 1.01 (0.92, 1.10)
- Combination Indices at 75% HIV Inhibition (Confidence Interval) [3]: 0.96 (0.83, 1.10)
- Combination Indices at 90% HIV Inhibition (Confidence Interval) [3]: 0.94 (0.73, 1.14)

SMILES: Nc1nc(=O)n([C@@H]2CS[C@H](CO)O2)cc1F [Emtricitabine, emtricitabine]
- EC50: 53 nM
- overall antiviral effect of the two-drug combination with Example 19 (in words): synergistic
- Combination Indices at 50% HIV Inhibition (Confidence Interval) [1]: 0.31 (0.27, 0.36)
- Combination Indices at 75% HIV Inhibition (Confidence Interval) [1]: 0.23 (0.18, 0.28)
- Combination Indices at 90% HIV Inhibition (Confidence Interval) [1]: 0.18 (0.12, 0.24)
- Combination Indices at 50% HIV Inhibition (Confidence Interval) [2]: 0.31 (0.26, 0.37)
- Combination Indices at 75% HIV Inhibition (Confidence Interval) [2]: 0.23 (0.19, 0.29)
- Combination Indices at 90% HIV Inhibition (Confidence Interval) [2]: 0.17 (0.12, 0.28)
- Combination Indices at 50% HIV Inhibition (Confidence Interval) [3]: 0.33 (0.28, 0.38)
- Combination Indices at 75% HIV Inhibition (Confidence Interval) [3]: 0.25 (0.20, 0.30)
- Combination Indices at 90% HIV Inhibition (Confidence Interval) [3]: 0.19 (0.13, 0.25)

Reference: US7491819B1 (priority 2004, dated 2009)
